# Results taken from patent publication US20020188202A1, “Method of diagnosis and treatment and related compositions and apparatus” (priority 1996, published 2002).
# “Also recorded” adds a separate entry of the source. Counter-ions that a name gives are not always drawn. Like-named read-outs stand apart in the source and are kept apart here.
# How the values were obtained:
# [1] = test system: patients with cerebral vasospasm; assay: Vasoactive medications tried on Applicant's patients with vasospasm, monitored by Transcranial Doppler (TCD), exam and symptoms; conditions: for effectiveness in treating the vasospasm: qualitative rating in Applicant's patient population (tend to be the most severe cases); for effect on vessels seen on TCD / ultrasound (vasoconstriction or dilatation) / headache / neurological exam and other neurological abnormalities: human, in vivo; for EEG abnormalities and neurocognitive or neurological complaints / change of the vasospasm: anti-epileptic drugs in therapeutic doses
# [2] = test system: patients with cerebral vasospasm; conditions: human, in vivo
# [3] = test system: patient with migraine, schizophrenic reaction and vasospasm; assay: Case study: psychosis caused by cerebral ischemia, EEG and TCD; format: in vivo, human patient; conditions: single patient; for response of psychosis (hallucinations and delusions): in hospital
# [4] = IM, lower doses than 90 to 120 mg
compound,measurement,setting,value
COC(=O)[C@H]1[C@H]2C[C@@H]3c4[nH]c5cc(OC)ccc5c4CCN3C[C@H]2C[C@@H](OC(=O)c2cc(OC)c(OC)c(OC)c2)[C@@H]1OC [Reserpine],effectiveness in treating the vasospasm,[1],very effective; also recorded: extremely effective
"Cc1nc2n(c(=O)c1CCN1CCC(c3noc4cc(F)ccc34)CC1)CCCC2 [Respiradol, Respiradone]",tolerability,[2],less well-tolerated in comparison with Thorazine and Navane
same,patient's symptoms,[1]; antipsychotic agents in patients with vasospasm,generally improved the patient's symptoms
same,effect on vessels seen on TCD / ultrasound (vasoconstriction or dilatation),[1],no significant improvement on ultrasound
"O=C1NC(=O)C(c2ccccc2)(c2ccccc2)N1 [Dilantin, Phenytoin]",EEG abnormalities and neurocognitive or neurological complaints,[1],improved in some patients
same,change of the vasospasm,[1],none of the medications in therapeutic doses have changed the vasospasm
CNCCC(Oc1ccc(C(F)(F)F)cc1)c1ccccc1 (centres unmarked) [Prozac],effectiveness in treating the vasospasm,[1],helpful
"CC(COc1ccccc1)N(CCCl)Cc1ccccc1 (centres unmarked) [Dibenzyline, Phenoxybenzamine]",effectiveness in treating the vasospasm,[1],relatively mild
"COCCc1ccc(OCC(O)CNC(C)C)cc1 (centres unmarked) [Lopressor, Metoprolol Tartrate]",effectiveness in treating the vasospasm,[1],None of these have been significantly effective at vasodilation
"CN(C)CCCN1c2ccccc2Sc2ccc(Cl)cc21 [Thorazine, Chlorpromazine]",effectiveness in treating the vasospasm,[1],moderately effected; also recorded: moderately effective
"COc1ccc([C@@H]2Sc3ccccc3N(CCN(C)C)C(=O)[C@@H]2OC(C)=O)cc1 [Dilacor, Diltiazem]",effectiveness in treating the vasospasm,[1],less effective
"COc1cc2nc(N3CCN(C(=O)C4COc5ccccc5O4)CC3)nc(N)c2cc1OC (centres unmarked) [Cardura, Doxazosin]",effectiveness in treating the vasospasm,[1],relatively mild medication
"CSc1ccc2c(c1)N(CCC1CCCCN1C)c1ccccc1S2 (centres unmarked) [Mellaril, Thioridazine]",effectiveness in treating the vasospasm,[1],has not been effective; also recorded: no significant effects
"CCOC(=O)[C@H](CCc1ccccc1)N[C@@H](C)C(=O)N1Cc2ccccc2C[C@H]1C(=O)O [Accupril, Quinapril]",effectiveness in treating the vasospasm,[1],consistently been the most effective
same,weaning from oral medications,"[1]; with concomitant low dose Nitroglycerin, 1/10th inch once to several times a day",most patients may be eventually weaned from the use of oral medications
"C[C@H](CS)C(=O)N1CCC[C@H]1C(=O)O [Capoten, Captopril]",effectiveness in treating the vasospasm,[1],close second tier medications
"CNS(=O)(=O)Cc1ccc2[nH]cc(CCN(C)C)c2c1 [Imitrex, sumatriptan succinate]",effect on vessels seen on TCD / ultrasound (vasoconstriction or dilatation),[1],caused vasoconstriction
same,headache,[1],improved their headache
same,neurological exam and other neurological abnormalities,[1],worsened the patient's neurological exam and mentation
Clc1cccc(Cl)c1N=C1NCCN1 [Clonidine],transient supersensitivity (transient worsening of the vasospasm) on early administration,[2],did not occur
same,effect on vessels seen on TCD / ultrasound (vasoconstriction or dilatation),[1],resulted in vascular dilatation
same,headache,[1],alleviated or treated the headache
same,neurological exam and other neurological abnormalities,[1],clinical and neurological exam improvement
same,treating migraine induced depression due to chronic vasospasm,[1]; patients who could not tolerate or respond to other vasodilators,useful in these depressed patients
same,effectiveness in treating the vasospasm,[1],extremely effective
"CC(C)NCC(O)COc1cccc2ccccc12 (centres unmarked) [Inderal, Propranolol]",EEG and flow abnormalities on Transcranial Doppler,[3],without change in their EEG and continued flow abnormalities
same,smoothing out the sympathetic nervous system excitability and variability,[1]; patients being tapered off vasodilators,most effective; also recorded: extremely effective
same,effectiveness in treating the vasospasm,[1],None of these have been significantly effective at vasodilation
"CCCC(CCC)C(=O)[O-].[Na+] [Depakote, Sodium Valproate]",EEG and flow abnormalities on Transcranial Doppler,[3],without change in their EEG and continued flow abnormalities
same,EEG abnormalities and neurocognitive or neurological complaints,[1],improved in some patients
same,change of the vasospasm,[1],none of the medications in therapeutic doses have changed the vasospasm
NNc1nncc2ccccc12 [Hydralazine],blood pressure changes,[2],tends to cause significant blood pressure changes
same,transient supersensitivity (transient worsening of the vasospasm) on early administration,[2],did not occur
"CC(C)NCC(O)COc1ccc(CC(N)=O)cc1 (centres unmarked) [Tenormin, Atenolol]",effectiveness in treating the vasospasm,[1],None of these have been significantly effective at vasodilation
"CC(CCc1ccccc1)NCC(O)c1ccc(O)c(C(N)=O)c1 (centres unmarked) [Normodyne, Labetolol]",effectiveness in treating the vasospasm,[1],None of these have been significantly effective at vasodilation
"CN1CCN(CC/C=C2/c3ccccc3Sc3ccc(S(=O)(=O)N(C)C)cc32)CC1 [Navane, Thiothixene]",response of psychosis (hallucinations and delusions),[3],good response
same,improvement in the Transcranial Doppler Artery Ultrasound,"[1]; patients with TCD mean flow velocities greater than 1.3, within a half hour of 2 mg in 4 ounces of water orally, generally expected",50%
same,blood pressure changes,[1]; patients with vasospasm,without causing peripheral blood pressure changes
same,effectiveness in treating the vasospasm,[1],extremely effective central vasodilator
same,effectiveness in treating the vasospasm,[1]; listed as Navanne,most effective
"O=C(c1ccccc1)c1ccc2n1CCC2C(=O)O (centres unmarked) [Toradol, ketorolac tromethamine]",effect on Transcranial Doppler ultrasound,[1]; 90 to 120 mg IM doses,causes acute vasodilation on ultrasound in most patients
same,reversal of reactive vasoconstriction (Nitric Oxide sensitivity reaction) after first nitrate dose,[1]; IM,can be immediately reversed
same,effectiveness,"[1]; IM, doses lower than 90-120 mg",not so effective
same,effect on Transcranial Doppler ultrasound,[1]; [4],generally do not show significant changes
same,patient-reported symptoms,[1]; [4],symptomatic improvement
same,improvement on Transcranial Doppler Artery Ultrasound,"[1]; IV, 30 to 60 mg doses",does not cause any improvement
same,effect on vessels seen on TCD / ultrasound (vasoconstriction or dilatation),[1],resulted in vascular dilatation
same,headache,[1],alleviated or treated the headache
same,neurological exam and other neurological abnormalities,[1],clinical and neurological exam improvement
same,vasodilation,[1]; intramuscularly (I.M.) or oral form after oral or I.M. loading,gives the expected vasodilation
"NCCCC[C@H](N[C@@H](CCc1ccccc1)C(=O)O)C(=O)N1CCC[C@H]1C(=O)O [Zestril, Lisinopril]",effectiveness in treating the vasospasm,[1],extremely effective
"NC(=O)N1c2ccccc2C=Cc2ccccc21 [Tegretol, Carbamazepine]",EEG abnormalities and neurocognitive or neurological complaints,[1],improved in some patients
same,change of the vasospasm,[1],none of the medications in therapeutic doses have changed the vasospasm
"NCCCC[C@H](N[C@@H](CCc1ccccc1)C(=O)O)C(=O)N1CCC[C@H]1C(=O)O [Prinivil, Lisinopril]",effectiveness in treating the vasospasm,[1],close second tier medications
CN1C[C@H](C(=O)N[C@]2(C)O[C@@]3(O)[C@@H]4CCCN4C(=O)[C@H](Cc4ccccc4)N3C2=O)C[C@@H]2c3cccc4[nH]cc(c34)C[C@H]21 [DHE],effect on vessels seen on TCD / ultrasound (vasoconstriction or dilatation),[1],caused vasoconstriction
same,headache,[1],improved their headache
same,neurological exam and other neurological abnormalities,[1],worsened the patient's neurological exam and mentation
"O=C(CCCN1CCC(O)(c2ccc(Cl)cc2)CC1)c1ccc(F)cc1 [Haldol, Haloperidol]",response of psychosis (hallucinations and delusions),[3],did not respond; also recorded: poor response
"CCOC(=O)[C@H](CCc1ccccc1)N[C@H]1CCc2ccccc2N(CC(=O)O)C1=O [Lotensin, Benazepril]",effectiveness in treating the vasospasm,[1],close second tier medications
"O=C(O)C(O)C(O)C(=O)O.Oc1ccc2c(c1)[C@@]13CCCC[C@@]1(O)[C@@H](C2)N(CC1CCC1)CC3 [Stadol, butorphanol tartrate]",effect on vessels seen on TCD / ultrasound (vasoconstriction or dilatation),[1],caused vasoconstriction
same,headache,[1],improved their headache
same,neurological exam and other neurological abnormalities,[1],worsened the patient's neurological exam and mentation
"COc1cc2nc(N3CCN(C(=O)C4CCCO4)CC3)nc(N)c2cc1OC (centres unmarked) [Hytrin, Terazosin]",effectiveness in treating the vasospasm,[1],less successful results; also recorded: has not been found to be effective
"COC(=O)C1=C(C)NC(C)=C(C(=O)OC(C)C)C1c1cccc2nonc12 (centres unmarked) [Dynacirc, isradipine]",transient supersensitivity (transient worsening of the vasospasm) on early administration,[2],did not occur
same,effect on vessels seen on TCD / ultrasound (vasoconstriction or dilatation),[1],resulted in vascular dilatation
same,headache,[1],alleviated or treated the headache
same,neurological exam and other neurological abnormalities,[1],clinical and neurological exam improvement
same,effectiveness in treating the vasospasm,[1],extremely effective
